Tests used:
[1] = tested on: Wild-type (WT) U2OS cells; assay: Reduction in nonspecific labeling of WT cells (number of tracks vs PA-JF549); format: cell-based; details: 100 nM, 1 hr, ratio with PA-JF549 in the numerator
Protocol: Using the methods described in Tables 4a and 4b above, labelling specificity of the compound of Examples 1-28 was measured and compared to PA-JF549. U2OS cells wild type or expressing ER-HaloTag fusion were incubated with PA-JF549 or Examples 1-28 for 1 hr. […] Labeling specificity, as measured by the fold reduction in nonspecific labeling of WT cells, was calculated by number of tracks measured in WT cells for Examples 1-28 compared to the number of tracks in WT cells for PA-JF549, expressed as the ratio with PA-JF549 in the numerator.

[2] = tested on: histone H2B-HaloTag fusion; assay: Halo-protein specificity (Specificity Factor), single molecule spot detection; format: cell-based; details: ratio of slope (spots vs dye concentration, 200 nM to 1 nM, 45 minutes) relative to PA-JF549; WT and H2B-HaloTag U2OS cells
Description: Images were collected every 10 msec for 5 seconds per field of view and pulses of ascending intensity 405 nm light (between 0 and 12 mW at the coverslip) were used to photoactivate dye molecules.
For each dye compound, a linear regression was used to determine the relationship between the concentration of dye compound and the number of fluorescence spots detected on the microscope, where in WT cells the ideal dye would have no correlation between compound concentration and number of slots measured. The Specificity Factor was calculated as the ratio of the slope of the compound in question relative to the slope calculated for PA-JF549 and is shown in Table 3 below.

[3] = Table 4b, Example 19 with 642 nm light

Molecule | Fold reduction in nonspecific labeling ([1]; Table 4a) | Fold reduction in nonspecific labeling [1, 3] | Specificity Factor [2]
CN(C)C(=O)C1CN(c2ccc3c(c2)Oc2cc(N4CC(C(=O)N(C)C)C4)ccc2C32C(=[N+]=[N-])C(=O)c3ccc(C(=O)NCCOCCOCCCCCCCl)cc32)C1 [Example 4, 1,1′-(6-((2-(2-((6-chlorohexyl)oxy)ethoxy)ethyl)carbamoyl)-2-diazo-3-oxo-2,3-dihydrospiro[indene-1,9′-xanthene]-3′,6′-diyl)bis(N,N-dimethylazetidine-3-carboxamide)] | >10 | >10 | 23.8
(E)-3′,6′-di(azetidin-1-yl)-6-(4-(2-((6-chlorohexyl)oxy)ethoxy)but-1-en-1-yl)-2-diazospiro[indene-1,9′-xanthen]-3(2H)-one and (Z)-3′,6′-di(azetidin-1-yl)-6-(4-(2-((6-chlorohexyl)oxy)ethoxy)but-1-en-1-yl)-2-diazospiro[indene-1,9′-xanthen]-3(2H)-one [Example 23] |  | >10 | 
[N-]=[N+]=C1C(=O)c2ccc(C(=O)NCCOCCOCCCCCCCl)cc2C12c1ccc(N3C4COCC3C4)cc1Oc1cc(N3C4COCC3C4)ccc12 (stereo not shown) [Example 17, 3′,6′-di(3-oxa-6-azabicyclo[3.1.1]heptan-6-yl)-N-(2-(2-((6-chlorohexyl)oxy)ethoxy)ethyl)-2-diazo-3-oxo-2,3-dihydrospiro[indene-1,9′-xanthene]-6-carboxamide] | 1-5 | 1-5 | 
CN(C)C(=O)C1CN(c2ccc3c(c2)[Si](C)(C)c2cc(N4CC(C(=O)N(C)C)C4)ccc2C32C(=[N+]=[N-])C(=O)c3ccc(C(=O)NCCOCCOCCCCCCCl)cc32)C1 [Example 19, 1,1′-(6′-((2-(2-((6-chlorohexyl)oxy)ethoxy)ethyl)carbamoyl)-2′-diazo-5,5-dimethyl-3′-oxo-2′,3′-dihydro-5H-spiro[dibenzo[b,e]siline-10,1′-indene]-3,7-diyl)bis(N,N-dimethylazetidine-3-carboxamide)] |  | >10 | 
COC[C@H]1CCN1c1ccc2c(c1)Oc1cc(N3CC[C@@H]3COC)ccc1C21C(=[N+]=[N-])C(=O)c2ccc(C(=O)NCCOCCOCCCCCCCl)cc21 [Example 3, N-(2-(2-((6-chlorohexyl)oxy)ethoxy)ethyl)-2-diazo-3′,6′-bis((R)-2-(methoxymethyl)azetidin-1-yl)-3-oxo-2,3-dihydrospiro[indene-1,9′-xanthene]-6-carboxamide] | 1-5 | 1-5 | 2.07
O=C1OC2(c3ccc(N4CCC4)cc3Oc3cc(N4CCC4)ccc32)c2cc(NCCOCCOCCCCCCCl)ccc21 [Example 21, 3′,6′-di(azetidin-1-yl)-6-((2-(2-((6-chlorohexyl)oxy)ethoxy)ethyl)amino)-3H-spiro[isobenzofuran-1,9′-xanthen]-3-one] |  | 5-10 | 
[N-]=[N+]=C1C(=O)c2ccc(C(=O)NCCOCCOCCCCCCCl)cc2C12c1ccc(N3CC(C(=O)O)C3)cc1Oc1cc(N3CC(C(=O)O)C3)ccc12 [Reference Example 2, 1,1′-(6-((2-(2-((6-chlorohexyl)oxy)ethoxy)ethyl)carbamoyl)-2-diazo-3-oxo-2,3-dihydrospiro[indene-1,9′-xanthene]-3′,6′-diyl)bis(azetidine-3-carboxylic acid)] | >10 | >10 | <1
[N-]=[N+]=C1C(=O)c2ccc(COCCOCCOCCCCCCCl)cc2C12c1ccc(N3CCC3)cc1Oc1cc(N3CCC3)ccc12 [Example 27, 3′,6′-di(azetidin-1-yl)-6-((2-(2-((6-chlorohexyl)oxy)ethoxy)ethoxy)methyl)-2-diazospiro[indene-1,9′-xanthen]-3(2H)-one] |  | <1 | 
COC(=O)C1CN(c2ccc3c(c2)Oc2cc(N4CC(C(=O)OC)C4)ccc2C32C(=[N+]=[N-])C(=O)c3ccc(C(=O)NCCOCCOCCCCCCCl)cc32)C1 [Reference Example 1, dimethyl 1,1′-(6-((2-(2-((6-chlorohexyl)oxy)ethoxy)ethyl)carbamoyl)-2-diazo-3-oxo-2,3-dihydrospiro[indene-1,9′-xanthene]-3′,6′-diyl)bis(azetidine-3-carboxylate)] | >10 | >10 | 2.66
[N-]=[N+]=C1C(=O)c2ccc(OCCCOCCOCCCCCCCl)cc2C12c1ccc(N3CCC3)cc1Oc1cc(N3CCC3)ccc12 [Example 25, 3′,6′-di(azetidin-1-yl)-6-(3-(2-((6-chlorohexyl)oxy)ethoxy)propoxy)-2-diazospiro[indene-1,9′-xanthen]-3(2H)-one] |  | <1 | 
CN(CCOCCOCCCCCCCl)Cc1ccc2c(c1)C1(C(=[N+]=[N-])C2=O)c2ccc(N3CCC3)cc2Oc2cc(N3CCC3)ccc21 [Example 26, 3′,6′-di(azetidin-1-yl)-6-(((2-(2-((6-chlorohexyl)oxy)ethoxy)ethyl)(methyl)amino)methyl)-2-diazospiro[indene-1,9′-xanthen]-3(2H)-one] |  | <1 | 
CN(C)C(=O)C1CN(c2ccc3c(c2)Oc2cc(N4CC(C(=O)N(C)C)C4)ccc2C32C(=[N+]=[N-])C(=O)c3ccc(C(=O)NCc4ccc(COc5nc(N)nc6nc[nH]c56)cc4)cc32)C1 [Example 5, 1,1′-(6-((4-(((2-amino-7H-purin-6-yl)oxy)methyl)benzyl)carbamoyl)-2-diazo-3-oxo-2,3-dihydrospiro[indene-1,9′-xanthene]-3′,6′-diyl)bis(N,N-dimethylazetidine-3-carboxamide)] | >10 | >10 | 

Source: patent publication US20260234403A1, “PHOTOACTIVE FLUORESCENT COMPOUNDS AND USE THEREOF FOR LABELING OF PROTEINS” (EIKON THERAPEUTICS, INC., priority 2023, published 2026)
